# US4749690A, “Treatment of allergy with thymopentin” (Ortho Pharmaceutical Corporation, priority 1986, dated 1988)
# “Also recorded” adds a separate entry of the source. No end group written: not given here.
# Key:
# T lymphocytes = details: background art; cited from earlier work
# [1] = test system: patients with Ragweed Hay Fever; assay: double-blind placebo-controlled phase II study, patient-diary hay fever symptom counts; format: in vivo, human; details: for Average # Weekly Symptoms, Severe / Average # Weekly Symptoms, Total / Average # Weekly Symptoms, Mild: average per subject over weeks 3-12; for hay fever symptoms compared with placebo group (in words): 12 weeks
# From the text: Each group was given a subcutaneous injection three times a week and an intravenous injection once a week; in the first group the first injection was thymopentin while the second was placebo, in the second group the first injection was placebo and the second thymopentin, while in the third group both injections were placebo. […] The application of the present invention is illustrated by the clinical study on thymopentin in the treatment of patients with Ragweed Hay Fever given in the Example which follows. Thirty (30) patients with a proven history of ragweed hay fever, who fulfill all of the inclusion criteria and none of the exclusion criteria, were enrolled in this single site study. This invention was a placebo-controlled phase II safety and efficacy study of Thymopentin (TP5) in the treatment of patients with Ragwood Hay Fever. Thirty (30) patients were assigned to either TP5 or placebo according to a double blind randomization schedule. Ten (10) patients were assigned to each of three (3) treatment groups described as follows. Group 1 received 1.0 ml TP5 (50 mg/ml) subcutaneously three (3) times per week and 5.0 ml placebo intravenously once weekly for twelve (12) weeks. Group 2 received 1.0 ml placebo subcutaneously three (3) times per week and 5.0 ml TP5 (20 mg/ml) intravenously once weekly for twelve (12) weeks. Group 3 received 1.0 ml placebo subcutaneously three (3) times per week and 5.0 ml placebo intravenously once weekly for twelve (12) weeks. 1. Each patient received subcutaneous injections three (3) times per week and one intravenous injection per week for twelve weeks, according to the group randomization schedule described above. 2. All patients received a diary in which allergy medication (chlortrimeton) taken during the course of the study and symptoms related to Ragweed Hay Fever were documented. Patients received specific instructions pertaining to continued maintenance of their symptom and medication diaries. The diaries were reviewed weekly and returned upon termination of treatment. Each of the thirty subjects recorded twice daily the occurrence of five symptoms using the mutually exclusive scores "none", "mild", and "severe". The efficacy of treatment was determined by comparison of the average weekly number of mild and severe symptoms per subject. In one analysis, a score was created for each subject based upon the number of times certain symptoms were noted over the ten-week period of study. Each occurrence of a mild or severe symptom was scored as "1" and the average weekly score over the ten weeks for which data were collected was computed for each subject. Pair-wise comparisons were made among the three groups using a standard t-test. […] A more detailed analysis used a repeated measures analysis of variance, in which the total weekly symptoms were compared on a week-by-week basis. The results are presented in Table II and graphically in FIGS. 1 through 3. This analysis indicates high significance among the three groups with respect to severe symptoms and all symptoms.
substance,measurement,setting,value
"RKDVY [TP5, H-ARG-LYS-ASP-VAL-TYR-OH]",differentiation of T lymphocytes (in words),T lymphocytes,selectively stimulate the differentiation of T lymphocytes
same,"Average number of symptoms per week per subject, Cough Mild",[1]; Group 1 (TP5 sc),0.14
same,"Average number of symptoms per week per subject, Cough Sev.",[1]; Group 1 (TP5 sc),0.02
same,"Average number of symptoms per week per subject, Itchy Eyes Mild",[1]; Group 1 (TP5 sc),2.45
same,"Average number of symptoms per week per subject, Itchy Eyes Sev.",[1]; Group 1 (TP5 sc),0.18
same,"Average number of symptoms per week per subject, Red Eyes Mild",[1]; Group 1 (TP5 sc),1.12
same,"Average number of symptoms per week per subject, Red Eyes Sev.",[1]; Group 1 (TP5 sc),0.12
same,"Average number of symptoms per week per subject, Runny Nose Mild",[1]; Group 1 (TP5 sc),3.51
same,"Average number of symptoms per week per subject, Runny Nose Sev.",[1]; Group 1 (TP5 sc),1.86
same,"Average number of symptoms per week per subject, Sneezing Mild",[1]; Group 1 (TP5 sc),2.97
same,"Average number of symptoms per week per subject, Sneezing Sev.",[1]; Group 1 (TP5 sc),0.46
same,"Average # Weekly Symptoms, Severe","[1]; Group 1, TP5 50 mg s.c. 3x/week, p vs placebo .1382",2.64
same,"Average # Weekly Symptoms, Total","[1]; Group 1, TP5 50 mg s.c. 3x/week, p vs placebo .1394",12.84
same,"Average # Weekly Symptoms, Mild","[1]; Group 1, TP5 50 mg s.c. 3x/week, p vs placebo .3059",10.20
same,hay fever symptoms compared with placebo group (in words),"[1]; Group 1, thymopentin 50 mg subcutaneously three times per week, listed as Thymopentin",the difference from placebo is not statistically significant; also recorded: decreasing the number of severe hay fever symptoms
same,hay fever symptoms compared with placebo group (in words),"[1]; Group 1, thymopentin 50 mg subcutaneously three times per week, listed as thymopentin",experienced fewer symptoms than group 3; also recorded: effective regimens to palliate allergic symptoms
same,"Total Mild & Severe Symptoms Combined, average weekly number","[1]; Group 1 TP5 s.c., week 3",5.78
same,"Total Mild Symptoms, average weekly number","[1]; Group 1 TP5 s.c., week 3",5.22
same,"Total Severe Symptoms, average weekly number","[1]; Group 1 TP5 s.c., week 3",0.56
same,"Total Mild & Severe Symptoms Combined, average weekly number","[1]; Group 1 TP5 s.c., week 4",9.22
same,"Total Mild Symptoms, average weekly number","[1]; Group 1 TP5 s.c., week 4",8.11
same,"Total Severe Symptoms, average weekly number","[1]; Group 1 TP5 s.c., week 4",1.11
same,"Total Mild & Severe Symptoms Combined, average weekly number","[1]; Group 1 TP5 s.c., week 5",9.78
same,"Total Mild Symptoms, average weekly number","[1]; Group 1 TP5 s.c., week 5",9.00
same,"Total Severe Symptoms, average weekly number","[1]; Group 1 TP5 s.c., week 5",0.78
same,"Total Mild & Severe Symptoms Combined, average weekly number","[1]; Group 1 TP5 s.c., week 6",11.56
same,"Total Mild Symptoms, average weekly number","[1]; Group 1 TP5 s.c., week 6",10.11
same,"Total Severe Symptoms, average weekly number","[1]; Group 1 TP5 s.c., week 6",1.44
same,"Total Mild & Severe Symptoms Combined, average weekly number","[1]; Group 1 TP5 s.c., week 7",14.44
same,"Total Mild Symptoms, average weekly number","[1]; Group 1 TP5 s.c., week 7",13.11
same,"Total Severe Symptoms, average weekly number","[1]; Group 1 TP5 s.c., week 7",1.33
same,"Total Mild & Severe Symptoms Combined, average weekly number","[1]; Group 1 TP5 s.c., week 8",16.33
same,"Total Mild Symptoms, average weekly number","[1]; Group 1 TP5 s.c., week 8",14.44
same,"Total Severe Symptoms, average weekly number","[1]; Group 1 TP5 s.c., week 8",1.89
same,"Total Mild & Severe Symptoms Combined, average weekly number","[1]; Group 1 TP5 s.c., week 9",19.67
same,"Total Mild Symptoms, average weekly number","[1]; Group 1 TP5 s.c., week 9",18.56
same,"Total Severe Symptoms, average weekly number","[1]; Group 1 TP5 s.c., week 9",1.11
same,"Total Mild & Severe Symptoms Combined, average weekly number","[1]; Group 1 TP5 s.c., week 10",17.78
same,"Total Mild Symptoms, average weekly number","[1]; Group 1 TP5 s.c., week 10",15.22
same,"Total Severe Symptoms, average weekly number","[1]; Group 1 TP5 s.c., week 10",2.56
same,"Total Mild & Severe Symptoms Combined, average weekly number","[1]; Group 1 TP5 s.c., week 11",16.89
same,"Total Mild Symptoms, average weekly number","[1]; Group 1 TP5 s.c., week 11",13.11
same,"Total Severe Symptoms, average weekly number","[1]; Group 1 TP5 s.c., week 11",3.78
same,"Total Mild & Severe Symptoms Combined, average weekly number","[1]; Group 1 TP5 s.c., week 12",5.89
same,"Total Mild Symptoms, average weekly number","[1]; Group 1 TP5 s.c., week 12",5.67
same,"Total Severe Symptoms, average weekly number","[1]; Group 1 TP5 s.c., week 12",0.22
same,"Average number of symptoms per week per subject, Cough Mild",[1]; Group 2 (TP5 iv),0.48
same,"Average number of symptoms per week per subject, Cough Sev.",[1]; Group 2 (TP5 iv),0.03
same,"Average number of symptoms per week per subject, Itchy Eyes Mild",[1]; Group 2 (TP5 iv),0.84
same,"Average number of symptoms per week per subject, Itchy Eyes Sev.",[1]; Group 2 (TP5 iv),0.25
same,"Average number of symptoms per week per subject, Red Eyes Mild",[1]; Group 2 (TP5 iv),0.75
same,"Average number of symptoms per week per subject, Red Eyes Sev.",[1]; Group 2 (TP5 iv),0.08
same,"Average number of symptoms per week per subject, Runny Nose Mild",[1]; Group 2 (TP5 iv),3.03
same,"Average number of symptoms per week per subject, Runny Nose Sev.",[1]; Group 2 (TP5 iv),0.80
same,"Average number of symptoms per week per subject, Sneezing Mild",[1]; Group 2 (TP5 iv),2.33
same,"Average number of symptoms per week per subject, Sneezing Sev.",[1]; Group 2 (TP5 iv),0.61
same,"Average # Weekly Symptoms, Total","[1]; Group 2, TP5 100 mg i.v. once weekly, p vs placebo .0145",9.20
same,"Average # Weekly Symptoms, Severe","[1]; Group 2, TP5 100 mg i.v. once weekly, p vs placebo .0232",1.77
same,"Average # Weekly Symptoms, Mild","[1]; Group 2, TP5 100 mg i.v. once weekly, p vs placebo .0257",7.43
same,hay fever symptoms compared with placebo group (in words),"[1]; Group 2, thymopentin 100 mg intravenously once per week, listed as Thymopentin",statistically significant difference from group 3; also recorded: decreasing the number of severe hay fever symptoms
same,hay fever symptoms compared with placebo group (in words),"[1]; Group 2, thymopentin 100 mg intravenously once per week, listed as thymopentin",This difference was statistically significant for group 2; also recorded: effective regimens to palliate allergic symptoms
same,"Total Mild & Severe Symptoms Combined, average weekly number","[1]; Group 2 TP5 i.v., week 3",5.43
same,"Total Mild Symptoms, average weekly number","[1]; Group 2 TP5 i.v., week 3",4.43
same,"Total Severe Symptoms, average weekly number","[1]; Group 2 TP5 i.v., week 3",1.0
same,"Total Mild & Severe Symptoms Combined, average weekly number","[1]; Group 2 TP5 i.v., week 4",8.86
same,"Total Mild Symptoms, average weekly number","[1]; Group 2 TP5 i.v., week 4",8.43
same,"Total Severe Symptoms, average weekly number","[1]; Group 2 TP5 i.v., week 4",0.43
same,"Total Mild & Severe Symptoms Combined, average weekly number","[1]; Group 2 TP5 i.v., week 5",7.00
same,"Total Mild Symptoms, average weekly number","[1]; Group 2 TP5 i.v., week 5",6.71
same,"Total Severe Symptoms, average weekly number","[1]; Group 2 TP5 i.v., week 5",0.29
same,"Total Mild & Severe Symptoms Combined, average weekly number","[1]; Group 2 TP5 i.v., week 6",10.86
same,"Total Mild Symptoms, average weekly number","[1]; Group 2 TP5 i.v., week 6",9.29
same,"Total Severe Symptoms, average weekly number","[1]; Group 2 TP5 i.v., week 6",1.57
same,"Total Mild & Severe Symptoms Combined, average weekly number","[1]; Group 2 TP5 i.v., week 7",9.00
same,"Total Mild Symptoms, average weekly number","[1]; Group 2 TP5 i.v., week 7",8.00
same,"Total Severe Symptoms, average weekly number","[1]; Group 2 TP5 i.v., week 7",1.00
same,"Total Mild & Severe Symptoms Combined, average weekly number","[1]; Group 2 TP5 i.v., week 8",11.00
same,"Total Mild Symptoms, average weekly number","[1]; Group 2 TP5 i.v., week 8",8.57
same,"Total Severe Symptoms, average weekly number","[1]; Group 2 TP5 i.v., week 8",2.43
same,"Total Mild & Severe Symptoms Combined, average weekly number","[1]; Group 2 TP5 i.v., week 9",8.14
same,"Total Mild Symptoms, average weekly number","[1]; Group 2 TP5 i.v., week 9",7.71
same,"Total Severe Symptoms, average weekly number","[1]; Group 2 TP5 i.v., week 9",0.43
same,"Total Mild & Severe Symptoms Combined, average weekly number","[1]; Group 2 TP5 i.v., week 10",5.14
same,"Total Mild Symptoms, average weekly number","[1]; Group 2 TP5 i.v., week 10",4.71
same,"Total Severe Symptoms, average weekly number","[1]; Group 2 TP5 i.v., week 10",0.43
same,"Total Mild & Severe Symptoms Combined, average weekly number","[1]; Group 2 TP5 i.v., week 11",5.43
same,"Total Mild Symptoms, average weekly number","[1]; Group 2 TP5 i.v., week 11",5.14
same,"Total Severe Symptoms, average weekly number","[1]; Group 2 TP5 i.v., week 11",0.29
same,"Total Mild & Severe Symptoms Combined, average weekly number","[1]; Group 2 TP5 i.v., week 12",1.71
same,"Total Mild Symptoms, average weekly number","[1]; Group 2 TP5 i.v., week 12",1.57
same,"Total Severe Symptoms, average weekly number","[1]; Group 2 TP5 i.v., week 12",0.14
same,alleviating the symptoms of allergic rhinitis compared to placebo (in words),"[1]; double-blind study, route not specified",statistically significant compared to placebo
same,safety (in words),[1]; general statement,very safe drug
